{"source": "patent US20070208077A1", "about": "“Adiponectin Enhancer” (priority 2004, published 2007)", "key": {"Zucker fatty rats": {"test_system": "Zucker fatty rats", "assay": "Plasma adiponectin concentration of Zucker fatty rats, ELISA", "type": "in vivo, rat", "conditions": "male Zucker fatty rats, 0.1% sesamin in AIN-93G feed for four weeks, after overnight starving; control feed 6.06 ± 0.48", "protocol": "The rats were divided into two groups with five rats per group, with the first group being freely given AIN-93G (growth stage feed, product of Nihon Crea) as the control group and the second group being freely given feed comprising 0.1% sesamin added to AIN-93G, for a four week period. After four weeks, blood was sampled after overnight starving, and the plasma was separated. The plasma adiponectin concentrations were assayed using an Enzyme-Linked ImmunoSorbent Assay (Mouse/Rat Adiponectin ELISA Kit, product of Otsuka Pharmaceutical)."}, "3T3-L1 cells": {"test_system": "3T3-L1 cells", "assay": "Effect of inducing size reduction of adipocytes in pre-differentiated 3T3-L1 cell cultures", "type": "cell-based, mouse", "conditions": "sesamin 50 μM, 3T3-L1 cells pre-differentiated to adipocytes, 8 days of culturing, vs control"}, "adiponectin": {"test_system": "adiponectin", "assay": "Adiponectin production by 3T3-L1 adipocytes, ELISA of culture solution", "type": "cell-based, mouse", "conditions": "sesamin 50 μM, vs control", "protocol": "Mouse-derived 3T3-L1 cells were treated for 42 hours in culturing solution containing insulin, dexamethasone and isobutylxanthine, for differentiation to adipocytes. The culture solution was removed and immediately combined with sesamin-free culturing solution (control) or culturing solution containing sesamin at a final concentration of 50 μM (sesamin), and after culturing for 48 hours, the culture solution was exchanged and culturing was continued for 6 days. The cell culturing was carried out in an incubator controlled to 5% CO2 gas-95% air at a temperature of 37° C. The adiponectin concentrations in the culture solutions were measured by Enzyme-Linked ImmunoSorbent Assay (Mouse/Rat Adiponectin ELISA Kit, Otsuka Pharmaceutical)."}, "TNFα mRNA": {"test_system": "TNFα mRNA", "assay": "Cellular TNFα mRNA level by quantitative RT-PCR in 3T3-L1 adipocytes", "type": "cell-based, mouse", "conditions": "sesamin 50 μM, 8 days of culturing, vs control", "protocol": "(§1) Mouse-derived 3T3-L1 cells were treated for 42 hours in culturing solution containing insulin, dexamethasone and isobutylxanthine, for differentiation to adipocytes. The culture solution was removed and immediately combined with sesamin-free culturing solution (control) or culturing solution containing sesamin at a final concentration of 50 μM (sesamin), and after culturing for 48 hours, the culture solution was exchanged and culturing was continued for 6 days. The cell culturing was carried out in an incubator controlled to 5% CO2 gas-95% air at a temperature of 37° C. The cellular mRNA levels for adiponectin and TNFα were measured by quantitative RT-PCR using CYBR-Green (BMC Biotechnol. 3, 18, 2003)."}, "adiponectin mRNA": {"test_system": "adiponectin mRNA", "assay": "Cellular adiponectin mRNA level by quantitative RT-PCR in 3T3-L1 adipocytes", "type": "cell-based, mouse", "conditions": "sesamin 50 μM, 8 days of culturing", "protocol": "as §1"}}, "note": "Where “and” joins values, the source holds several entries; their conditions need not be identical. Identical values can stand only once."}
{"smiles": "c1cc2c(cc1[C@H]1OC[C@H]3[C@@H]1CO[C@@H]3c1ccc3c(c1)OCO3)OCO2", "note": "[sesamin]", "values": [{"measurement": "Plasma adiponectin", "setting": "Zucker fatty rats", "result": "6.53 µg/mL and 6.53 ± 0.54 µg/mL"}, {"measurement": "influence on adipocyte size", "setting": "3T3-L1 cells", "result": "numerous small adipocytes"}, {"measurement": "increase of adiponectin concentration in the cell cultured medium", "setting": "adiponectin", "result": 1.6, "unit": "fold"}, {"measurement": "TNFα mRNA levels in the adipocytes", "setting": "TNFα mRNA", "result": "decreased"}, {"measurement": "adiponectin mRNA levels in the adipocytes, increase with respect to the control group", "setting": "adiponectin mRNA", "result": 7, "unit": "fold"}]}
